{
  "source": "patent US10272082B2",
  "about": "“Combination ALS therapy” (Cytokinetics, Inc., priority 2011, dated 2019)",
  "key": {"[1]": {"system": "human hepatic microsomes", "details": "in vitro; high concentrations required; cited from earlier work"}, "[2]": {"assay": "Example 4: twice-daily dose titration regimen of CK-2017357 in patients with ALS", "assay_type": "in vivo", "excerpt": "Patients enrolled in this clinical study were randomized, double-blind, and placebo-controlled.\nPlacebo patients underwent a similar dummy dose titration to maintain the blind. FIG. 4 illustrates the study design."}, "[3]": {"molecular_target": "T1, CYP1A2 (Homo sapiens, UniProt P05177)", "T1 sequence (P05177 1-516)": "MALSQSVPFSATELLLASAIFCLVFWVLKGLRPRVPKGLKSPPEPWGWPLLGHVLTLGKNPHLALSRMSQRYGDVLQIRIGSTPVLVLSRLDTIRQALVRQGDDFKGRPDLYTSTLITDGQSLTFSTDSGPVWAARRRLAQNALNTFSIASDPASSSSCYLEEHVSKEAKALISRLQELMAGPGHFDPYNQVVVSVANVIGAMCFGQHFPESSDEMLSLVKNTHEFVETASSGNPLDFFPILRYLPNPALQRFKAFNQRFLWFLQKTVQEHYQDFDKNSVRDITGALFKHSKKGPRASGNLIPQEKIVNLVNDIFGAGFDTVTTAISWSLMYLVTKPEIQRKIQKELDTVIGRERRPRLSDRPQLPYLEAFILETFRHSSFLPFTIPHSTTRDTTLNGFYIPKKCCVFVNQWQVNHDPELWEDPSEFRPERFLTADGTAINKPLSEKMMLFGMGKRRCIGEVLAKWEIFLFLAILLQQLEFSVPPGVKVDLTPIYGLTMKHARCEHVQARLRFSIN", "assay": "Mechanism-based inhibition of human CYP1A2 in vitro", "assay_type": "in vitro ADME"}, "[4]": {"assay": "Previous clinical experiments with CK-2017357 once a day in the morning", "assay_type": "in vivo, human", "excerpt": "In previous clinical experiments, 1-(ethylpropyl)-6-ethynylimidazo[4,5-b]pyrazin-2-ol (CK-2017357) has been administered once a day in the morning. While improvements in patient and investigator global assessments, muscle fatigability and pulmonary function have been observed in these studies, dizziness has been a dose-limiting adverse event in both healthy volunteers and in patients with ALS. This example examines whether the maximum tolerable total daily dose of CK-2017357 can be increased by dividing the daily dose into two portions (morning and evening), and beginning treatment with a low dose and titrating upward to a target of 250 mg twice daily."}, "[5]": {"details": "ALS patients"}, "[6]": {"assay": "clinical", "details": "human, plasma, CK-2017357 Cmax, 14 days, ALS patients"}, "[7]": {"details": "repeated single daily doses 125-375 mg"}},
  "note": "“Also recorded” adds a separate entry of the source.",
  "data": [
    {"smiles": "CN(C)CCCN1c2ccccc2CCc2ccc(Cl)cc21", "note": "[clomipramine]", "values": [
      {"measurement": "inhibition of the metabolism of riluzole by human hepatic microsomes", "setting": "[1]", "result": "inhibition has been observed"}
    ]},
    {"smiles": "CO[C@]12C[C@@H](COC(=O)c3cncc(Br)c3)CN(C)[C@@H]1Cc1cn(C)c3cccc2c13", "note": "[nicergoline]", "values": [
      {"measurement": "inhibition of the metabolism of riluzole by human hepatic microsomes", "setting": "[1]", "result": "inhibition has been observed"}
    ]},
    {"smiles": "CN(C)CCC=C1c2ccccc2CCc2ccccc21", "note": "[amitriptyline]", "values": [
      {"measurement": "inhibition of the metabolism of riluzole by human hepatic microsomes", "setting": "[1]", "result": "inhibition has been observed"}
    ]},
    {"smiles": "C#Cc1cnc2nc(O)n(C(CC)CC)c2n1", "note": "[CK-2017357, 6-Ethynyl-1-(pentan-3-yl)-1H-imidazo[4,5-b]pyrazin-2(3H)-one]", "values": [
      {"measurement": "safety and tolerability of twice-daily dose titration regimen", "setting": "[2]; ALS patients", "result": "safe and well tolerated"},
      {"measurement": "ALSFRS-R score and MVV", "setting": "[2]; CK-2017357 relative to placebo, ALS patients", "result": "Encouraging trends toward increases"},
      {"measurement": "patients in whom dizziness was self-limited", "setting": "[2]; of 12 patients in whom it occurred", "result": 6, "unit": "patients"},
      {"measurement": "patients in whom dizziness was mild", "setting": "[2]; of the 12 patients in whom it occurred", "result": 10, "unit": "patients"},
      {"measurement": "patients escalated to the highest total daily dose of 500 mg and completing three weeks of dosing", "setting": "[2]; of the 21 patients randomized to CK-2017357, twice-daily titration, riluzole 50 mg QD", "result": 14, "unit": "patients"},
      {"measurement": "most commonly reported treatment-emergent adverse event", "setting": "[2]; twice-daily dose titration 250-500 mg total daily, ALS patients", "result": "dizziness"},
      {"measurement": "KI (inactivation)", "setting": "[3]; read-out: K1 (inactivation constant)", "result": 1900, "unit": "nM"},
      {"measurement": "kinact", "setting": "[3]; read-out: kinact (max rate constant for inactivation) (converted)", "result": 0.000517, "unit": "s⁻¹"},
      {"measurement": "dose-limiting adverse event", "setting": "[4]; healthy volunteers and patients with ALS", "result": "dizziness"},
      {"measurement": "patient and investigator global assessments, muscle fatigability and pulmonary function", "setting": "[4]; previous clinical experiments", "result": "improvements"},
      {"measurement": "dose dependence of CK-2017357 pharmacokinetics", "setting": "[5]; 125, 250, 375 mg daily for 14 days", "result": "increased proportionally by dose; also recorded: predictable linear kinetics"},
      {"measurement": "adverse event frequencies in the presence of riluzole", "setting": "[5]; at any dose of CK-2017357", "result": "not altered"},
      {"measurement": "plasma levels achieved steady state by", "setting": "[5]; [7]", "result": "≤ 8", "unit": "days"},
      {"measurement": "time to reach steady state", "setting": "[5]; [7]", "result": "≤ 1", "unit": "week"},
      {"measurement": "plasma level four hours after dosing on Day 8 higher than four hours after first dose on Day 1", "setting": "[5]; repeated single daily doses", "result": "approximately 70%"},
      {"measurement": "effect of riluzole on CK-2017357 Cmax / plasma levels", "setting": "[5]; riluzole 50 mg daily vs none", "result": "no apparent effect of riluzole; also recorded: not affected"},
      {"measurement": "Cmax", "setting": "[6]; 50 mg, CK-2017357 daily dose 125 (mg), On Riluzole (50 mg daily)", "result": 6000, "unit": "ng/mL"},
      {"measurement": "Cmax", "setting": "[6]; 50 mg, CK-2017357 daily dose 250 (mg), On Riluzole (50 mg daily)", "result": 8400, "unit": "ng/mL"},
      {"measurement": "Cmax", "setting": "[6]; 50 mg, CK-2017357 daily dose 375 (mg), On Riluzole (50 mg daily)", "result": 13500, "unit": "ng/mL"},
      {"measurement": "Cmax", "setting": "[6]; 125 mg, CK-2017357 daily dose 125 (mg), No Riluzole", "result": 4100, "unit": "ng/mL"},
      {"measurement": "Cmax", "setting": "[6]; 250 mg, CK-2017357 daily dose 250 (mg), No Riluzole", "result": 7400, "unit": "ng/mL"},
      {"measurement": "Cmax", "setting": "[6]; 375 mg, CK-2017357 daily dose 375 (mg), No Riluzole", "result": 12700, "unit": "ng/mL"}
    ]},
    {"smiles": "O=C(O)Cc1ccccc1Nc1c(Cl)cccc1Cl", "note": "[diclofenac]", "values": [
      {"measurement": "inhibition of the metabolism of riluzole by human hepatic microsomes", "setting": "[1]", "result": "inhibition has been observed"}
    ]}
  ]
}
